Counter-ions that a name gives are not always drawn. Like-named read-outs stand apart in the source and are kept apart here.
What was measured:
[1] = Evaluation of acute toxicities, mouse; settings: in vivo, male, read-out: Acute toxicity mean LD50
Excerpt: (§1) Evaluation of acute toxicities

[2] = system: beta-1 adrenergic receptors; assay: Isolated rat left atrium: interactions with beta-adrenergic receptors (atenolol antagonism)
Experimental: Isolated rat left atrium: interactions with beta-adrenercic receptors.
The affinity for beta-1 adrenergic receptors has been evaluated in the rat left atrium as previously described.
In this test, dose-response curves of CHF 1255 were recorded in the absence and in the presence of increasing concentrations (10^-8 to 3×10^-7 M) of the selective beta-1 blocker atenolol.

[3] = system: anesthetized dog; assay: Anesthetized dog: cardiovascular activity; format: in vivo, Beagle dog; settings: for Hypotensive action / Increase of the cardiac output / Increase of the stroke volume / Reduction of the systemic arterial resistances: i.v. bolus
Experimental: The interesting hemodynamic properties of CHF 1255 were confirmed in vivo in the anesthetized dog.
Anesthesized dog: cardiovascular activity
Beagle dogs were anesthetized with sodium pentobarbital (30 mg/kg iv) thoracotomized and monitored by recording cardiocirculatory parameters.
CHF 1255 and the reference drugs (amrinone and xamoterol) were administered i.v. in a bolus.
CHF 1255 at the doses of 0.3-1.3 μmoles/kg i.v. confirmed its activity in changing hemodynamic parameters.

[4] = system: isolated rat left atrium; assay: Isolated rat left atrium: inotropic activity (force); settings: for EC50 / Emax: Rattus norvegicus; for EC50: read-out: EC50, left atrium (force)
Experimental: (§2) The inotropic and chronotropic effects of compound (Ia) of the invention were determined in vitro using, respectively, isolated rat left atrium and right atrium.
Left atrium:inotrocic activity
The atria were subjected to a 0.5 g starting tension and suspended in a bath containing aerated Krebs-Henseleit j solution with 95% O2 and […] kept at 32.C. The preparation was stimulated at a 4 Hz frequency with pulses during 5 msec each. The contraction strength was detected by an isometric transducer and recorded on a microndynamometer.
(§3) The results were expressed as the percentage of the response obtained with a maximal dose ([…]) of isoproterenol which was determined at the beginning of the test. In Table 1 the potency (EC50=effective concentration inducing the 50% of the maximal effect) and the relative intrinsic activity (expressed as α and compared with that of isoproterenol, taken=1) are shown.
(§4) The effects of the compounds were evaluated in rat isolated atria according to the previously described method.
(§5) Table 3. Potency (EC50) and intrinsic activity (α;isoproterenol=1) on the isolated rat left atrium (Inotropic activity) and right atrium (chronotropic activity).

[5] = molecular target: T1, beta-2 adrenergic receptors (Cavia porcellus, UniProt Q8K4Z4); assay: Isolated guinea-pig trachea: interactions with beta-2 adrenergic receptors (relaxation of carbachol contraction); settings: for EC50: carbachol 3×10^-7 M
T1 construct: Trachea strips were isolated and prepared according to the method described by Emerson J and Machay D; from tissue; host or cells: guinea-pig isolated trachea strips
Experimental: The selectivity of this interaction has been studied by evaluating the effects on beta-2 adrenergic receptors, in the guinea-pig isolated trachea, using CHF 1026 as reference compound.
Isolated guinea-pig trachea: interactions with beta-2 adrenergic receptors
Trachea strips were isolated and prepared according to the method described by Emerson J and Machay D in J Pharm Pharmacol 1979, 31, 798, immersed in Krebs-Henseleit solution (37° C., 95% O2 +5% CO2), subjected to an initial tension of 1 g and contracted with carbachol (3×10^-7 M).
Dose-response curves of CHF 1255 and CHF 1026 were recorded in the absence and in the presence of 10^-6 M propranolol, used as antagonist and added to the bath before the stimulation with carbachol.
The obtained results are shown in Table 2, expressed as potency (EC50 calculated from t he dose--response curve) and intrinsic activity (α, isoproternol=1).

[6] = system: catecholamines release; assay: Mechanism of cardiostimulant action: catecholamines release; settings: mechanism study
Excerpt: (§6) The mechanism of the inotropic activity of CHF 1255 has been studied in a series of other tests.
(§7) Studies have excluded the possibility that the cardiostimulant action of the compound is due to catecholamines release, to the stimulation of alpha-adrenergic cardiac receptors, or to the stimulation of histaminergic H1 and H2 receptors.

[7] = system: beta-2 adrenergic receptors; assay: Isolated guinea-pig trachea: interactions with beta-2 adrenergic receptors (relaxation of carbachol contraction); settings: inferred from selective beta-1 agonism
[8] = system: histaminergic H2 receptors; assay: Mechanism of cardiostimulant action: histaminergic H2 receptors; settings: mechanism study
Excerpt: as §6, §7

[9] = Evaluation of acute toxicities, rat; settings: in vivo, male/female, read-out: Acute toxicity mean LD50
Excerpt: as §1

[10] = system: rabbit isolated aorta; assay: Rabbit isolated aorta, inhibition of norepinephrine dose-response curve
[11] = system: histaminergic H1 receptors; assay: Mechanism of cardiostimulant action: histaminergic H1 receptors; settings: mechanism study
Excerpt: as §6, §7

[12] = system: phosphodiesterase; assay: Mechanism of cardiostimulant action: phosphodiesterase inhibition; settings: mechanism study
Excerpt: as §6, §7

[13] = system: isolated rat right atrium; assay: Isolated rat right atrium: chronotropic activity (frequency); settings: for EC50 / Emax: Rattus norvegicus; for EC50: read-out: EC50, right atrium (frequency)
Experimental: as §2
Right atrium:chronotrpic activity
The preparation was prepared in the same way and under the same conditions as described above, but was not subjected to electric stimulation. Frequency was monitored by a cardiotachograph.
as §3, §4, §5

[14] = system: alpha-adrenergic cardiac receptors; assay: Mechanism of cardiostimulant action: alpha-adrenergic cardiac receptors; settings: mechanism study
Excerpt: as §6, §7

[15] = 1st of three doses (0.3-1.3 μmoles/kg)
[16] = 2nd of three doses (0.3-1.3 μmoles/kg)
[17] = 3rd of three doses (0.3-1.3 μmoles/kg)

T1 sequence (Q8K4Z4 whole entry): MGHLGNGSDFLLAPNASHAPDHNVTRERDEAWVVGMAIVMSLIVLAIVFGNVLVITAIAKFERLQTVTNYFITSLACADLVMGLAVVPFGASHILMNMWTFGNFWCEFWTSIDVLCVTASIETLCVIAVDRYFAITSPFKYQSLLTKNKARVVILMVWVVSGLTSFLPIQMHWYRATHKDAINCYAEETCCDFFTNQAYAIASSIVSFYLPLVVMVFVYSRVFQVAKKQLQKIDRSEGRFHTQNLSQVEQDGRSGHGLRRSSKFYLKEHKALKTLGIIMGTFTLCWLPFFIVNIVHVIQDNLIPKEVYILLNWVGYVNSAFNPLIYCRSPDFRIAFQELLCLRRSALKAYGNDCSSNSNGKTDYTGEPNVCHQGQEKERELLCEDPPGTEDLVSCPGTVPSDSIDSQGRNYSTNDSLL

Question: For `COc1ccc2c(c1OC)CCC(N[C@@H](C)[C@H](O)c1ccc(O)cc1)C2` (relative stereo) [CHF 1255, Erythro-5,6-Dimethoxy-2-[2-(4-hydroxyphenyl)-2-hydroxy-1-mehylethylamino]1,2,3,4-tetrahydronaphthalene hydrochloride], which LD50 ([1]; iv, i.v.) is on record?
Answer: 65 mg/kg

Question: What about the LD50 ([1]; po, os) of the same compound?
Answer: 325 mg/kg

Question: And the “Shift of dose-response curve by beta-1 blocker atenolol” value ([2]; atenolol 10^-8 to 3×10^-7 M)?
Answer: shifted the dose-responsive curve of CHF 1255 to the right in a dose-dependent way

Question: And the “Receptor mediating the inotropic activity” value ([2]; mechanism study)?
Answer: due to the stimulation of beta-1 adrenergic receptors

Question: What about the “Hemodynamic effects (in words)” value ([3]; anesthetized dog, i.v.) of the same compound?
Answer: more relevant than those of amrinone

Question: And the Duration of activity ([3]; dog, in vivo)?
Answer: long-lasting

Question: What about the Hypotensive action [3, 15] of the same compound?
Answer: -17%

Question: What about the “Increase of the cardiac output” value [3, 15] of the same compound?
Answer: 17%

Question: What about the “Increase of the stroke volume” value [3, 15] of the same compound?
Answer: 10

Question: And the “Reduction of the systemic arterial resistances” value (“Reduction” for short) [3, 15]?
Answer: -28%

Question: And the Hypotensive action [3, 16]?
Answer: -22%

Question: What about the “Increase of the cardiac output” value [3, 16] of the same compound?
Answer: 28%

Question: And the “Increase of the stroke volume” value [3, 16]?
Answer: 16

Question: What about the “Reduction” value [3, 16] of the same compound?
Answer: -37%

Question: What about the Hypotensive action [3, 17] of the same compound?
Answer: -31%

Question: What about the “Increase of the cardiac output” value [3, 17] of the same compound?
Answer: 34%

Question: And the “Increase of the stroke volume” value [3, 17]?
Answer: 21

Question: What about the “Reduction” value [3, 17] of the same compound?
Answer: -45%

Question: What about the “Inotropic effect, dF/dT index (in words)” value ([3]; peak of first derivative of aortic flow) of the same compound?
Answer: remarkable inotropic effect increasing the dF/dT index

Question: And the EC50 ([4]; Table 3, inotropic activity, rat left atrium)?
Answer: 3.01 µM

Question: What about the EC50 ([4]; Table I, isolated rat left atrium, 4 Hz stimulation, confidence limits in parentheses) of the same compound?
Answer: 3 µM

Question: And the Emax ([4]; Table 3, isoproterenol=1, read-out: α, left atrium (force))?
Answer: 60%

Question: And the Emax ([4]; Table I, isoproterenol taken=1, confidence limits in parentheses, read-out: α (intrinsic activity), left atrium (force))?
Answer: 60%

Question: And the “Cardiostimulating potency compared with dopamine and CHF 1026” value ([4]; Table 1 comparison)?
Answer: potency comparable to those of dopamine and of CHF 1026

Question: And the “Intrinsic activity / type of agonism (in words)” value ([4]; beta-1 adrenergic receptors)?
Answer: partial agonist of beta-1 adrenergic receptors

Question: What about the “Potency ratio vs amrinone (times higher)” value ([4]; increase of contraction force, 50% of maximum effect, higher than amrinone) of the same compound?
Answer: about 10 times

Question: And the “Potency ratio vs xamoterol (times lower)” value ([4]; increase of contraction force, 50% of maximum effect, lower than xamoterol)?
Answer: about 300 times

Question: What about the “Effect of propranolol on dose-response curve” value ([5]; 10^-6 M propranolol) of the same compound?
Answer: remain unchanged

Question: And the Emax ([5]; guinea pig, isoproterenol=1, without propranolol, read-out: α in absence of propranolol)?
Answer: 94%

Question: What about the “Stimulation of beta-2 adrenergic receptors (in words)” value ([5]; guinea-pig trachea) of the same compound?
Answer: does not stimulate beta-2 adrenergic receptors

Question: And the EC50 ([5]; guinea-pig trachea, with 10^-6 M propranolol, read-out: EC50 in presence of propranolol)?
Answer: 4.6 µM

Question: And the EC50 ([5]; guinea-pig trachea, without propranolol, read-out: EC50 in absence of propranolol)?
Answer: 3.4 µM

Question: And the “α in presence of propranolol” value ([5]; isoproterenol=1, with 10^-6 M propranolol)?
Answer: 0.72

Question: What about the “Contribution of catecholamines release to cardiostimulant action” value [6] of the same compound?
Answer: excluded

Question: And the “Tachycardic and arrhythmogenic activity due to stimulation of beta-2 receptors” value [7]?
Answer: no tachycardic and arrhythmogenic activity

Question: What about the “Contribution of histaminergic H2 receptor stimulation to cardiostimulant action” value [8] of the same compound?
Answer: excluded

Question: What about the LD50 ([9]; iv, i.v.) of the same compound?
Answer: 59 mg/kg

Question: What about the LD50 ([9]; po, os) of the same compound?
Answer: 1270 mg/kg

Question: What about the “α-blocking activity in rabbit isolated aorta” value [10] of the same compound?
Answer: competitive inhibition of the noprepinephrine dose--response curve

Question: What about the “Contribution of histaminergic H1 receptor stimulation to cardiostimulant action” value [11] of the same compound?
Answer: excluded

Question: And the “Contribution of phosphodiesterase inhibition to cardiostimulant activity” value [12]?
Answer: not due to phosphodiesterase inhibition

Question: And the EC50 ([13]; Table 3, chronotropic activity, rat right atrium)?
Answer: 1.32 µM

Question: What about the EC50 ([13]; Table I, isolated rat right atrium, confidence limits in parentheses) of the same compound?
Answer: 1.3 µM

Question: And the Emax ([13]; Table 3, isoproterenol=1, read-out: α, right atrium (frequency))?
Answer: 160%

Question: What about the Emax ([13]; Table I, isoproterenol taken=1, confidence limits in parentheses, read-out: α (intrinsic activity), right atrium (frequency)) of the same compound?
Answer: 55%

Question: And the “Chronotropic efficacy compared with xamoterol” value ([13]; Table 3 comparison)?
Answer: remarkably lower than that of xamoterol

Question: What about the “Contribution of alpha-adrenergic cardiac receptor stimulation to cardiostimulant action” value [14] of the same compound?
Answer: excluded

— patent publication US5096929A, “2-amino-1,2,3,4-tetrahydronaphthalene derivatives with cardiovascular activity, process for their preparation and pharmaceutical compositions containing them” (Chiesi Farmaceutici S.p.A., priority 1989, dated 1992)
